From patent US20260176283A1, “IONIZABLE LIPIDS WITH LINEAR HEAD GROUPS” (Beam Therapeutics Inc., priority 2023, published 2026)
Values joined by “and” are separate entries in the source; they are usually repeats but may differ in a detail not shown here. Equal entries are not always repeated.

How the values were obtained:
[1] = LNP characterization of base editor LNP preparations (DLS diameter, PDI, encapsulation efficiency); format: physicochemical
Procedure: (§1) Lipid nanoparticle components are dissolved in 100% ethanol at specified lipid component molar ratios. mRNA encoding an adenine base editor and a chemically-modified sgRNA is dissolved at a mass ratio of 1:1 in 10 mM citrate, 100 mM NaCl, pH 4.0, resulting in a concentration of NA cargo of approximately 0.22 mg/mL. LNP preparations are formulated with molar ratios of either 50% Ionizable Lipid: 38.5% Cholesterol: 1.5% PEG2000-DMG: 10% DSPC or 47.5% Ionizable Lipid: 40% Cholesterol: 2.5% PEG2000-DMG: 10% DSPC both at a total lipid to NA molar ratio of 6.
(§2) LNP preparations are formed by microfluidic mixing of the lipid and NA solutions using a Precision Nanosystems NanoAssemblr Ignite Instrument, according to the manufacturer's protocol. A 3:1 ratio of aqueous to organic solvent is maintained during mixing using differential flow rates. After mixing, LNP preparations are collected, diluted in PBS (approximately 2:1 v/v), and further buffer exchange is conducted using dialysis in PBS at 4° C. for 8 to 24 hours against a 20 kDa filter. After this initial dialysis, each individual LNP preparation is characterized via dynamic light scattering (DLS) to measure size and polydispersity. pKa of a subpopulation of LNP preparations is measured via TNS assay. After dialysis, LNP preparations are sterile filtered using 0.22 micron sterile filter and stored at 4° C. for further use. In some embodiments, LNP preparations may be concentrated using 100 kDa Amicon filters per manufacturer's protocol.
DLS—LNP preparation hydrodynamic diameter and polydispersity index (PDI) is measured using high throughput dynamic light scattering (DLS) (DynaPro plate reader II, Wyatt). LNP preparations are diluted 1×PBS to an appropriate concentration and analyzed.
Concentration of NA is determined by Qubit microRNA kit (for siRNA) or HS RNA kit (for mRNA) per manufacturer's instructions. Encapsulation efficiency is determined by measuring unlysed and lysed LNPs.

[2] = tested on: ALAS1 target site; test: In vivo base editing with ABE mRNA and sgRNA targeting ALAS1; set-up: species or system Balb/c mice; conditions: for Liver Editing A->G (%): 4 days after dosing
Procedure: as §1, §2
(§3) Male Balb/C mice aged approximately 8-12 weeks are used in the experiments described herein. Each mouse is temporarily restrained, and LNP preparations are administered IV via tail vein injection. Age-matched mice are also used to administer vehicle (1×PBS) via tail vein injection as a control. Four to six days post-dose, tissues including liver, spleen, heart and muscle are collected (only liver and muscle (quardracept) are reported). Genomic DNA is isolated and fragmented and adapter-ligated using the Nextera DNA Flex Library Prep Kit (Illumina) using the 96-well plate Nextera indexing primers (Illumina), according to the manufacturer's instructions. Library size and concentration is confirmed by Fragment Analyzer (Agilent) and sent to Novogene for whole genome sequencing using an Illumina HiSeq.
(§4) For base editing, mRNA encoding an adenine base editor (ABE) and a guide RNA (sgRNA) targeting ALAS1 at 1:1 (mass ratio) are coencapsulated in LNP preparations as described herein. LNP preparations are administrated into Balb/c mice through tail vein injections at concentrations ranging from 0.05 to 3.0 mg/kg total RNA. At 4 days after dosing, mice are euthanized and liver, spleen and bone barrow are harvested. Base editing is determined by performing targeted deep sequencing analysis at the ALAS1 target site using extracted genomic DNA.

[3] = LNP preparation characterization (encapsulation efficiency, DLS size and polydispersity), barcoded screen LNPs; format: physicochemical; conditions: LNP 47.5% ionizable lipid: 40% cholesterol: 2.5% PEG-2000 DMG: 10% DPSC, N/P 4.5-6; for AVG PDI / AVG Z Dia (nm): DLS
Procedure: Lipid nanoparticle components were dissolved in 100% ethanol at specified lipid component molar ratios. Nucleic acid (NA) cargo was dissolved in 10 mM citrate, 100 mM NaCl, pH 4.0, resulting in a concentration of NA cargo of approximately 0.22 mg/mL. In some embodiments, NA cargos included both a functional NA and a reporter barcode mixed at mass ratios of 1:10 to 10:1 functional NA to barcode. As described herein, a NA can be a siRNA, an anti-sense, an expressing DNA, or mRNA.
LNP preparations were prepared with 47.5% Ionizable Lipid (e.g., a compound provided herein): 40% cholesterol: 2.5% PEG-2000 DMG: 10% DPSC and an N/P ratio range of 4.5-6. LNP preparations were formed by microfluidic mixing of the lipid and NA solutions using Precision Nanosystems NanoAssemblr Spark or Benchtop series Instruments, according to the manufacturer's protocol.
A ratio of aqueous to organic solvent of approximately 2:1 or 3:1 was maintained during mixing using differential flow rates. After mixing, LNP preparations were collected, diluted in phosphate buffer saline (PBS) or Tris-buffered saline (TBS) (approximately 1:1 v/v). Further buffer exchange was conducted using dialysis in PBS or TBS at 4° C. for 4 to 24 hours against a 20 kDa filter. After this initial dialysis, each individual LNP preparation may be characterized via dynamic light scattering (DLS) to measure the size (e.g., diameter) and polydispersity. LNP preparations falling within specific diameter and polydispersity ranges were pooled, and further dialyzed against PBS or TBS at 4° C. for 1 to 4 hours against a 100 kDa dialysis cassette. After the second dialysis, LNP preparations were sterile filtered using 0.22 μm filter and stored at 4° C. for further use.

[4] = tested on: PCSK9 target site; test: In vivo base editing with ABE mRNA and sgRNA targeting PCSK9; set-up: species or system Balb/c mice; conditions: dose 0.03 MPK (mg total RNA/kg) IV, formulation ratio 47.5:40:2.5:10, liver, 4 days after dosing
Procedure: as §1, §2, §3
as §4, with “PCSK9” for “ALAS1”, “concentration of 0.03 mg” for “concentrations ranging from 0.05 to 3.0 mg/kg”, “RNA/kg. […]” for “RNA. At 4 days after dosing, mice are euthanized and liver, spleen and bone barrow are harvested.”

[5] = Table C LNPs, formulation ratio 47.5:40:2.5:10, ABE mRNA/ALAS1 sgRNA
[6] = Table D LNPs, formulation ratio 50:38.5:1.5:10, ABE mRNA/ALAS1 sgRNA
[7] = dose 0.05 MPK IV, formulation ratio 50:38.5:1.5:10, liver
[8] = dose 3 MPK IV, formulation ratio 47.5:40:2.5:10, quadricep muscle
[9] = Table E LNPs, formulation ratio 47.5:40:2.5:10, ABE mRNA/PCSK9 sgRNA

Row | SMILES | Diameter (nm) [1, 5] | EE (%) [1, 5] | PDI (%) [1, 5] | AVG EE(%) [3] | AVG PDI [3] | AVG Z Dia (nm) [3] | Diameter (nm) [1, 6] | EE (%) [1, 6] | PDI (%) [1, 6] | Diameter (nm) [1, 9] | EE (%) [1, 9] | Liver Editing A->G (%) [4] | further results
1 | CCCCCCCC(CCCCCCC)OC(=O)CCCCCC(=O)OCC(COC(=O)CCCCCC(=O)OC(CCCCCCC)CCCCCCC)COC(=O)CCCN1CCCC1 [Compound (21), O1-[2-[[7-(1-heptyloctoxy)-7-oxo-heptanoyl]oxymethyl]-3-(4-pyrrolidin-1-ylbutanoyloxy)propyl] O7-(1-heptyloctyl) heptanedioate] | 62.08 nm | 98.19% | 6% | 95.1% | 0.13 | 75.95 nm | – | – | – | – | – | – | Liver Editing A->G (%) ([2]; dose 0.05 MPK IV, formulation ratio 47.5:40:2.5:10, liver): 0.5%
2 | CCC/C=C\CCC(CC/C=C\CCC)OC(=O)CCCCCC(=O)OCC(COC(=O)CCCCCC(=O)OC(CC/C=C\CCC)CC/C=C\CCC)COC(=O)CCCN1CCCC1 [Compound (23), 1-{2-[({7-Oxo-7-[(4Z,11Z)-pentadeca-4,11-dien-8-yloxy]heptanoyl}oxy)methyl]-3-{[4-(pyrrolidin-1-yl)butanoyl]oxy}propyl} 7-(4Z,11Z)-pentadeca-4,11-dien-8-ylheptanedioate] | – | – | – | 85.8% | 0.12 | 78.47 nm | 72.6 nm | 98.18% | 11.4% | – | – | – | Liver Editing A->G (%) ([2]; dose 1.5 MPK IV, formulation ratio 50:38.5:1.5:10, liver): 80.09%; Quadrecept Editing A->G (%) ([2]; dose 1.5 MPK IV, formulation ratio 50:38.5:1.5:10, quadricep muscle): 4.81%
3 | C=CCCCCCC(CCCCCC=C)OC(=O)CCCCCC(=O)OCC(COC(=O)CCCCCC(=O)OC(CCCCCC=C)CCCCCC=C)COC(=O)OCC1CCCN(CC)C1 (stereo not shown) [Compound (25), O1-[2-[(1-ethyl-3-piperidyl)methoxycarbonyloxymethyl]-3-[7-(1-hept-6-enyloct-7-enoxy)-7-oxo-heptanoyl]oxy-propyl] O7-(1-hept-6-enyloct-7-enyl) heptanedioate] | 75.47 nm | 99.1% | 1.2% | 94.4% | 0.12 | – | 79.55 nm | 96.9% | – | – | – | – | Liver Editing A->G (%) [2, 7]: 0.27%; Quadrecept Editing A->G (%) [2, 8]: 2.93%
4 | C=CCCCCCC(CCCCCC=C)OC(=O)CCCCCC(=O)OCC(COC(=O)CCCCCC(=O)OC(CCCCCC=C)CCCCCC=C)COC(=O)NCCN1CCCC1 [Compound (26), O1-[2-[[7-(1-hept-6-enyloct-7-enoxy)-7-oxo-heptanoyl]oxymethyl]-3-(2-pyrrolidin-1-ylethylcarbamoyloxy)propyl] O7-(1-hept-6-enyloct-7-enyl) heptanedioate] | 75.47 nm and 81.14 nm | 99.1% and 99% | 1.2% and 9.4% | 93.4% | 0.08 | 82.14 nm | 79.5 nm | 98.3% | 22.3% | – | – | – | Liver Editing A->G (%) [2, 7]: 0.41%; Quadrecept Editing A->G (%) [2, 8]: 7.26%

The next lines start with results.

Row | Diameter (nm) [1, 5] | EE (%) [1, 5] | PDI (%) [1, 5] | AVG EE(%) [3] | AVG PDI [3] | AVG Z Dia (nm) [3] | Diameter (nm) [1, 6] | EE (%) [1, 6] | PDI (%) [1, 6] | Diameter (nm) [1, 9] | EE (%) [1, 9] | SMILES | Liver Editing A->G (%) [4] | further results
5 | – | – | – | – | – | – | – | – | – | 65.7 nm | 96.55% | CC/C=C\CCCC(CCC/C=C\CC)OC(=O)CCCCCC(=O)OCC(COC(=O)CCCCCC(=O)OC(CCC/C=C\CC)CCC/C=C\CC)COC(=O)OCCCN(CC)CC [Compound (29), O1-[2-[3-(diethylamino)propoxycarbonyloxymethyl]-3-[7-[(Z)-1-[(Z)-hept-4-enyl]oct-5-enoxy]-7-oxo-heptanoyl]oxy-propyl] O7-[(Z)-1-[(Z)-hept-4-enyl]oct-5-enyl] heptanedioate] | 7.53% | PDI (%) [1, 9]: 11.9%
6 | – | – | – | – | – | – | – | – | – | 67.06 nm | 97.15% | CC/C=C\CCCC(CCC/C=C\CC)OC(=O)CCCCCC(=O)OCC(COC(=O)CCCCCC(=O)OC(CCC/C=C\CC)CCC/C=C\CC)COC(=O)OCCCN1CCCC1 [Compound (30), 1-[3-({7-Oxo-7-[(3Z,12Z)-pentadeca-3,12-dien-8-yloxy]heptanoyl}oxy)-2-[({[3-(pyrrolidin-1-yl)propoxy]carbonyl}oxy)methyl]propyl] 7-(3Z,12Z)-pentadeca-3,12-dien-8-yl heptanedioate] | 1.53% | –
7 | – | – | – | – | – | – | – | – | – | 103.5 nm | 93.42% | CC/C=C\CCCC(CCC/C=C\CC)OC(=O)CCCCCC(=O)OCC(COC(=O)CCCCCC(=O)OC(CCC/C=C\CC)CCC/C=C\CC)COC(=O)NCCN1CCN(C)CC1 [Compound (31), 01-[2-[[7-[(Z)-1-[(Z)-hept-4-enyl]oct-5-enoxy]-7-oxo-heptanoyl]oxymethyl]-3-[2-(4-methylpiperazin-1-yl)ethylcarbamoyloxy]propyl] O7-[(Z)-1-[(Z)-hept-4-enyl]oct-5-enyl] heptanedioate] | 0.02% | –
8 | – | – | – | – | – | – | – | – | – | 81.94 nm | 87.5% | CC/C=C\CCCC(CCC/C=C\CC)OC(=O)CCCCCC(=O)OCC(COC(=O)CCCCCC(=O)OC(CCC/C=C\CC)CCC/C=C\CC)COC(=O)NCCCn1ccnc1 [Compound (32), 1-{2-[({[3-(1H-imidazol-1-yl)propyl]carbamoyl}oxy)methyl]-3-({7-oxo-7-[(3Z,12Z)-pentadeca-3,12-dien-8-yloxy]heptanoyl}oxy)propyl} 7-(3Z,12Z)-pentadeca-3,12-dien-8-yl heptanedioate] | 0.06% | –
9 | – | – | – | 98.3% | 0.10 | 133.71 nm | 179.7 nm | 75.69% | 23.4% | – | – | C=CCCCC(CCCC=C)OC(=O)CCCCC(=O)OCC(COC(=O)CCCCC(=O)OC(CCCC=C)CCCC=C)COC(=O)CCCN1CCCC1 [Compound (33), 1-[2-({[6-Oxo-6-(undeca-1,10-dien-6-yloxy)hexanoyl]oxy}methyl)-3-{[4-(pyrrolidin-1-yl)butanoyl]oxy}propyl] 6-undeca-1,10-dien-6-yl hexanedioate] | – | Quadrecept Editing A->G (%) ([2]; dose 3 MPK IV, formulation ratio 50:38.5:1.5:10, quadricep muscle): 0.1%
